Assay results published in patent US20110177136A1, “METHOD AND PRODUCT” (priority 2008, published 2011).
In brackets after ≈: the same amount, converted by molar mass.

How the values were obtained:
[1] = In vitro dissolution test in simulated gastric fluid (USP 24 type II apparatus); assay type: physicochemical; settings: 900 ml SGF pH 2, 37±0.5° C., 100 rpm, equivalent to 200 mg carbamazepine
Protocol: SGF was prepared with 2 g/L NaCl and 1 g/L Triton X-100, and acidified to pH 2 with HCl. Bath temperature was maintained at 37±0.5° C. and stirred at 100 rpm. Samples were collected at 15, 30 and 60 min and replaced with a fresh dissolution medium. After centrifugation, filtration through 0.45 μm membrane filter and suitable dilution, concentration of carbamazepine was determined spectrophotometrically at 320 nm.

[2] = 24 h
physchem = settings: 37 °C, water, thermodynamic from solid

NC(=O)N1c2ccccc2C=Cc2ccccc21 [Carbamazepine, carbamazepine]
Percentage of Carbamazepine released ([1]; 15 min, listed as pure carbamazepine): 43.48%
Percentage of Carbamazepine released ([1]; 15 min, listed as pure drug): 43.48 ± 2.23%
Percentage of Carbamazepine released ([1]; 30 min, listed as pure carbamazepine): 59.29%
Percentage of Carbamazepine released ([1]; 30 min, listed as pure drug): 59.29 ± 2.21%
Percentage of Carbamazepine released ([1]; 60 min, listed as Pure carbamazepine): 69.11%
Percentage of Carbamazepine released ([1]; 60 min, listed as pure drug): 69.11 ± 2.24%
Saturation Solubility [2]: 0.29 mg/mL
solubility at 24 h (physchem): 0.29 mg/mL (≈ 1230 µM)
